Measurements as given in PubChem BioAssay AID256 (DTP/NCI, 2004).
Inconclusive results and toxic doses are left out. Rule for the calls: active = survival T/C of 150% or more; inactive = T/C below 125% in these data.

Test system: CD2F1 mice, L1210 leukemia ip, survival T/C
Test: NCI In Vivo Anticancer Drug Screen. Data for tumor model L1210 Leukemia (intraperitoneal) in CD2F1 (CDF1) mice
Details: higher = longer survival
Outline: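 Read-out first: treated-group measurement over vehicle-control measurement, expressed as a ratio. Animals bore a transplanted tumor line and were dosed with compound or vehicle.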

Measured: T/C

C=CN1CCCC1=O
inactive: endpoint: mean survival time, dose: 100.0 mg/kg/injection, schedule: Q04DX003 (ip), vehicle: saline with Tween-80 98 % of control | endpoint: mean survival time, dose: 200.0 mg/kg/injection, schedule: Q04DX003 (ip), vehicle: saline with Tween-80 101 % of control | endpoint: mean survival time, dose: 400.0 mg/kg/injection, schedule: Q04DX003 (ip), vehicle: saline with Tween-80 95 % of control | endpoint: mean survival time, dose: 1400.0 mg/kg/injection, schedule: Q01DX001 (ip), vehicle: saline 101 % of control | endpoint: mean survival time, dose: 1600.0 mg/kg/injection, schedule: Q01DX001 (ip), vehicle: saline 110 % of control | endpoint: mean survival time, dose: 1800.0 mg/kg/injection, schedule: Q01DX001 (ip), vehicle: saline 117 % of control | endpoint: mean survival time, dose: 2000.0 mg/kg/injection, schedule: Q01DX001 (ip), vehicle: saline 114 % of control | endpoint: median survival time, dose: 1.9 grams/kg/injection, schedule: Q01DX001 (iv), vehicle: saline 100 % of control | endpoint: median survival time, dose: 1.9 grams/kg/injection, schedule: Q01DX005 (iv), vehicle: saline 112 % of control | endpoint: median survival time, dose: 1.9 grams/kg/injection, schedule: Q03HX008 (ip), vehicle: saline 112 % of control | endpoint: median survival time, dose: 1.9 grams/kg/injection, schedule: Q03HX016 (ip), vehicle: saline 106 % of control | endpoint: median survival time, dose: 1.9 grams/kg/injection, schedule: Q03HX024 (ip), vehicle: saline 112 % of control | endpoint: median survival time, dose: 1.9 grams/kg/injection, schedule: Q04DX003 (iv), vehicle: saline 112 % of control | endpoint: median survival time, dose: 3.8 grams/kg/injection, schedule: Q01DX001 (ip), vehicle: saline 112 % of control | endpoint: median survival time, dose: 3.8 grams/kg/injection, schedule: Q01DX001 (iv), vehicle: saline 100 % of control | endpoint: median survival time, dose: 3.8 grams/kg/injection, schedule: Q01DX005 (ip), vehicle: saline 100 % of control | endpoint: median survival time, dose: 3.8 grams/kg/injection, schedule: Q01DX005 (iv), vehicle: saline 100 % of control | endpoint: median survival time, dose: 3.8 grams/kg/injection, schedule: Q01DX009 (ip), vehicle: saline 100 % of control | endpoint: median survival time, dose: 3.8 grams/kg/injection, schedule: Q03HX008 (ip), vehicle: saline 112 % of control | endpoint: median survival time, dose: 3.8 grams/kg/injection, schedule: Q03HX016 (ip), vehicle: saline 112 % of control | endpoint: median survival time, dose: 3.8 grams/kg/injection, schedule: Q03HX024 (ip), vehicle: saline 112 % of control | endpoint: median survival time, dose: 3.8 grams/kg/injection, schedule: Q04DX003 (ip), vehicle: saline 106 % of control | endpoint: median survival time, dose: 3.8 grams/kg/injection, schedule: Q04DX003 (iv), vehicle: saline 112 % of control | endpoint: median survival time, dose: 3.8 grams/kg/injection, schedule: Q08DX002 (ip), vehicle: saline 106 % of control | endpoint: median survival time, dose: 7.5 grams/kg/injection, schedule: Q01DX001 (ip), vehicle: saline 100 % of control | endpoint: median survival time, dose: 7.5 grams/kg/injection, schedule: Q01DX001 (iv), vehicle: saline 100 % of control | endpoint: median survival time, dose: 7.5 grams/kg/injection, schedule: Q01DX005 (ip), vehicle: saline 112 % of control | endpoint: median survival time, dose: 7.5 grams/kg/injection, schedule: Q01DX005 (iv), vehicle: saline 106 % of control | endpoint: median survival time, dose: 7.5 grams/kg/injection, schedule: Q01DX009 (ip), vehicle: saline 100 % of control | endpoint: median survival time, dose: 7.5 grams/kg/injection, schedule: Q03HX008 (ip), vehicle: saline 112 % of control | endpoint: median survival time, dose: 7.5 grams/kg/injection, schedule: Q04DX003 (ip), vehicle: saline 100 % of control | endpoint: median survival time, dose: 7.5 grams/kg/injection, schedule: Q04DX003 (iv), vehicle: saline 106 % of control | endpoint: median survival time, dose: 7.5 grams/kg/injection, schedule: Q08DX002 (ip), vehicle: saline 112 % of control | endpoint: median survival time, dose: 15.0 grams/kg/injection, schedule: Q01DX001 (ip), vehicle: saline 112 % of control | endpoint: median survival time, dose: 15.0 grams/kg/injection, schedule: Q01DX009 (ip), vehicle: saline 118 % of control | endpoint: median survival time, dose: 15.0 grams/kg/injection, schedule: Q04DX003 (ip), vehicle: saline 112 % of control | endpoint: median survival time, dose: 15.0 grams/kg/injection, schedule: Q08DX002 (ip), vehicle: saline 106 % of control

Nc1nc2c(c(=O)[nH]1)N1CCN(c3ccc(C(=O)NC(CCC(=O)O)C(=O)O)cc3)CC1CN2 (stereo not drawn)
inactive: endpoint: mean survival time, dose: 100.0 mg/kg/injection, schedule: Q01DX001 (ip), vehicle: sodium bicarbonate 100 % of control | endpoint: mean survival time, dose: 200.0 mg/kg/injection, schedule: Q01DX001 (ip), vehicle: sodium bicarbonate 100 % of control | endpoint: mean survival time, dose: 400.0 mg/kg/injection, schedule: Q01DX001 (ip), vehicle: sodium bicarbonate 86 % of control

Cc1cc(O)c(C)c(C)c1N=Nc1ccccc1
inactive: endpoint: mean survival time, dose: 100.0 mg/kg/injection, schedule: Q01DX005 (ip), vehicle: saline with Tween-80 97 % of control | endpoint: mean survival time, dose: 200.0 mg/kg/injection, schedule: Q01DX005 (ip), vehicle: saline with Tween-80 97 % of control | endpoint: mean survival time, dose: 400.0 mg/kg/injection, schedule: Q01DX005 (ip), vehicle: saline with Tween-80 97 % of control
